Test results: ChEMBL document CHEMBL1201862, “PubChem BioAssay data set” (2004)
Active and inactive are the calls of the source.

Legend:
[1] = biological target: ATP-dependent molecular chaperone HSP82 (Candida albicans (strain WO-1) (Yeast), UniProt C4YTQ8); experiment: loss of DOC-induced GRE-beta-galactosidase reporter signal, dose response, Hsp90 inhibitor project, S. cerevisiae, luminescence (AID 2400); type: functional, cell-based;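 further: beta-galactosidase luminescence from glucocorticoid response element reporter as proxy for Hsp90 function; inhibitor potency where signal loss means Hsp90 inhibition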
[2] = biological target: NACHT, LRR and PYD domains-containing protein 3 (Homo sapiens, UniProt Q96P20); experiment: NALP3 inhibitors in yeast, dose response, luminescent (AID 488799); type: functional
[3] = NIH-3T3 fibroblast cytotoxicity, dose response, cytotoxicity control, cell-based, fluorescence, Alamar Blue, secondary assay (AID 2327); type: functional;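 further: NIH-3T3 mouse fibroblasts cultured with fluconazole at 8 µg/mL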
[4] = biological target: Serine/threonine-protein phosphatase (Candida dubliniensis (strain CD36 / CBS 7987 / NCPF 3949 / NRRLY-17841) (Yeast), UniProt B9W6M3); experiment: calcineurin pathway inhibitors in yeast reporter, dose response, S. cerevisiae, CDRE-lacZ, luminescence, secondary (AID 2388); type: functional, cell-based;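 further: yeast reporter cells carrying a calcineurin-responsive lacZ construct stimulated with calcium chloride; luminescent beta-galactosidase reporter signal in whole cells rather than isolated phosphatase activity; potency for inhibition where a drop in reporter signal means calcineurin blockade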
[5] = C. albicans growth with fluconazole, confirmation, fluorescence, retest (AID 2467); type: functional, cell-based
[6] = biological target: T1, Corticotropin-releasing factor receptor 2/Corticotropin-releasing factor-binding protein (Homo sapiens, UniProt P24387+Q13324); experiment: activators of CRF receptor 2 with binding protein – uHTS hits, confirmation (AID 602473); type: functional; details: read-out: EC50_Mean
T1 sequence (Q13324 whole entry): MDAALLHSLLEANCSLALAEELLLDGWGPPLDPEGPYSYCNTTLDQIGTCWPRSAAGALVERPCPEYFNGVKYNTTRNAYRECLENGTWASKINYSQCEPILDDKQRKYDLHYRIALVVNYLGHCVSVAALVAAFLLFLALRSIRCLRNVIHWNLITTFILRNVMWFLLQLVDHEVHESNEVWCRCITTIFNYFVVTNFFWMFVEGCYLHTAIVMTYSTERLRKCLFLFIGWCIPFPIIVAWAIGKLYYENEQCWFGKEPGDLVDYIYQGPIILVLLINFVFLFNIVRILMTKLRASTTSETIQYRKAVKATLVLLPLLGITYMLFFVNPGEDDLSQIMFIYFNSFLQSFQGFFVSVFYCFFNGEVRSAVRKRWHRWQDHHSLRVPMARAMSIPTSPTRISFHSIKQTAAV
T1 sequence (P24387 whole entry): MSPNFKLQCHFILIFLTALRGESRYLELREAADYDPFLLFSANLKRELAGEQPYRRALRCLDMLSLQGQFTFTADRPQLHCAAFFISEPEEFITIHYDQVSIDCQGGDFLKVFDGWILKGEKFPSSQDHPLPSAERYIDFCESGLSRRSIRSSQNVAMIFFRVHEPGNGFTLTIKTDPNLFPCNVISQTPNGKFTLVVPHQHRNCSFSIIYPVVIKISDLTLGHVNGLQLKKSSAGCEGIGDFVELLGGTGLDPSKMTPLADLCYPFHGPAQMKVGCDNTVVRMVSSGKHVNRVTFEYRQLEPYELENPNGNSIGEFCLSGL

Insulin-degrading enzyme [7] = biological target: T2, Insulin-degrading enzyme (Homo sapiens, UniProt P14735); experiment: activators of recombinant IDE enzyme, dose response, counter-screen for IDE activator project, biochemical, fluorescence polarization (AID 588681)
T2 sequence (P14735 whole entry): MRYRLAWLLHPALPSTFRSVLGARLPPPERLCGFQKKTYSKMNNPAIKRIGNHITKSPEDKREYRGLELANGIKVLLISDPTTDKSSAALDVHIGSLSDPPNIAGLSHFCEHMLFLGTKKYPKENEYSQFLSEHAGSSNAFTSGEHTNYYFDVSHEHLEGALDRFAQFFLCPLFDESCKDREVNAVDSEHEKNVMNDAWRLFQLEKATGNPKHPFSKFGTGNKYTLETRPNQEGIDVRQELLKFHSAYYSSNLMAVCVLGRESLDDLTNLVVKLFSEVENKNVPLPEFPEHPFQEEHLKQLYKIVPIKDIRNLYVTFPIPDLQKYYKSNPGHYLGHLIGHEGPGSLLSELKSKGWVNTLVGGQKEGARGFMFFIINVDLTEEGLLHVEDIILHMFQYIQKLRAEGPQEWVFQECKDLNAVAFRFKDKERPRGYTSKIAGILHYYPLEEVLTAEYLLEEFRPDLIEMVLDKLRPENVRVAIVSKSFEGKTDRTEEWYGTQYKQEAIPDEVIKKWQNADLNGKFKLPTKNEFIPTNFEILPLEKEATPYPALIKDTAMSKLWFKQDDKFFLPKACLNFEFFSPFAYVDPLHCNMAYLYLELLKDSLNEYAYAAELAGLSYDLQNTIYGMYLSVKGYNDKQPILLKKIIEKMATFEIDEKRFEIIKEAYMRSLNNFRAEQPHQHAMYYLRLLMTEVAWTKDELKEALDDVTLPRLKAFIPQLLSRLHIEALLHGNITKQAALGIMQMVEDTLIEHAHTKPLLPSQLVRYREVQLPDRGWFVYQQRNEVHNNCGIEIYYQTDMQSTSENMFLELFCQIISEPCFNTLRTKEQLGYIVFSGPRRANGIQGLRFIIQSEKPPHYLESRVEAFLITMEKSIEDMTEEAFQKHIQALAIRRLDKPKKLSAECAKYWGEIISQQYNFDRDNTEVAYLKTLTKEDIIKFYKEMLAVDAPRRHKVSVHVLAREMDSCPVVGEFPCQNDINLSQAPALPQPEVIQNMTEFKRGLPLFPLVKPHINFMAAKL

HEK293 [8] = experiment: HEK cell cytotoxicity by LDH release, dose response, cytotoxicity control for IDE activator project, fluorescence, HEK cells (AID 588440); type: functional, cell-based; details: Homo sapiens;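 further: cytotoxicity by LDH release measuring loss of membrane integrity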
Insulin-degrading enzyme [9] = biological target: T2, Insulin-degrading enzyme; experiment: activators of endogenous IDE in HEK cells, dose response, cell-based, fluorescence polarization (AID 588439); type: functional
HEK293 [10] = experiment: optical interference in Abeta FP readout, dose response, artefact control for IDE activator project, biochemical, fluorescence polarization (AID 588442); type: functional, cell-based; details: Homo sapiens

Chain of ATP-dependent molecular chaperone HSP82 (C4YTQ8 whole entry, the tested form may be a part): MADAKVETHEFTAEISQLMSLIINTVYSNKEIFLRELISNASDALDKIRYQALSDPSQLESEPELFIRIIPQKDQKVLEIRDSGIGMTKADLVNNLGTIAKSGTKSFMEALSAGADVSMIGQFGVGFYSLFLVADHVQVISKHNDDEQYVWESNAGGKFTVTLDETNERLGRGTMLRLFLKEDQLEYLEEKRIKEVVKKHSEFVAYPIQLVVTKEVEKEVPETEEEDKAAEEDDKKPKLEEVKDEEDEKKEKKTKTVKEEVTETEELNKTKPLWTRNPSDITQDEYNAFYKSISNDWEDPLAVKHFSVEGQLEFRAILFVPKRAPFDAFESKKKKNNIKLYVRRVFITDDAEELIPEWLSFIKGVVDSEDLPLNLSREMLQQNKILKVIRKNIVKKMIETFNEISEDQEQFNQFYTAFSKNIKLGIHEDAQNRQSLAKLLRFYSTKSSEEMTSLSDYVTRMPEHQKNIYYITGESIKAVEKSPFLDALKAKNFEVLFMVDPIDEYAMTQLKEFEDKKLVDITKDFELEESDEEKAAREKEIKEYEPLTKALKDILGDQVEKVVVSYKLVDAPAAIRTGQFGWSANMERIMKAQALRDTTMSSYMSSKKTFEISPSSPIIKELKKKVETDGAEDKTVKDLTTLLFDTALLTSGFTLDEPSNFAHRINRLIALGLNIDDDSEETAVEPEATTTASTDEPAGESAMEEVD
Chain of Serine/threonine-protein phosphatase (B9W6M3 whole entry): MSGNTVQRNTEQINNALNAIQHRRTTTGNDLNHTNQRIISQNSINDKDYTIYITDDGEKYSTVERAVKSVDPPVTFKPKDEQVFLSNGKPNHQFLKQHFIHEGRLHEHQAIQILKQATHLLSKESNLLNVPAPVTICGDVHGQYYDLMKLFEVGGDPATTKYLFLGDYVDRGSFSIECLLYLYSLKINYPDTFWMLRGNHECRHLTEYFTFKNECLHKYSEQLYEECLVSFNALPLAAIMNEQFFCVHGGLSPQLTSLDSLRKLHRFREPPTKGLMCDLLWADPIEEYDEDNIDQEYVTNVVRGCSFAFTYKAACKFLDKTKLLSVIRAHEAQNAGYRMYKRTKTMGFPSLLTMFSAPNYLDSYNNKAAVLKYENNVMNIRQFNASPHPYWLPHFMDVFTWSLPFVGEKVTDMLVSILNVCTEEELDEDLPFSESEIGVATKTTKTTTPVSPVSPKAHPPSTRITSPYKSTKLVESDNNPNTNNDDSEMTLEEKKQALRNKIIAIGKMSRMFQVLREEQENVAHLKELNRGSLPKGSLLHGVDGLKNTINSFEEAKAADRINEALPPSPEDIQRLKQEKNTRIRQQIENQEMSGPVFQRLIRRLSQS
Chain of NACHT, LRR and PYD domains-containing protein 3 (Q96P20 whole entry, the tested form may be a part): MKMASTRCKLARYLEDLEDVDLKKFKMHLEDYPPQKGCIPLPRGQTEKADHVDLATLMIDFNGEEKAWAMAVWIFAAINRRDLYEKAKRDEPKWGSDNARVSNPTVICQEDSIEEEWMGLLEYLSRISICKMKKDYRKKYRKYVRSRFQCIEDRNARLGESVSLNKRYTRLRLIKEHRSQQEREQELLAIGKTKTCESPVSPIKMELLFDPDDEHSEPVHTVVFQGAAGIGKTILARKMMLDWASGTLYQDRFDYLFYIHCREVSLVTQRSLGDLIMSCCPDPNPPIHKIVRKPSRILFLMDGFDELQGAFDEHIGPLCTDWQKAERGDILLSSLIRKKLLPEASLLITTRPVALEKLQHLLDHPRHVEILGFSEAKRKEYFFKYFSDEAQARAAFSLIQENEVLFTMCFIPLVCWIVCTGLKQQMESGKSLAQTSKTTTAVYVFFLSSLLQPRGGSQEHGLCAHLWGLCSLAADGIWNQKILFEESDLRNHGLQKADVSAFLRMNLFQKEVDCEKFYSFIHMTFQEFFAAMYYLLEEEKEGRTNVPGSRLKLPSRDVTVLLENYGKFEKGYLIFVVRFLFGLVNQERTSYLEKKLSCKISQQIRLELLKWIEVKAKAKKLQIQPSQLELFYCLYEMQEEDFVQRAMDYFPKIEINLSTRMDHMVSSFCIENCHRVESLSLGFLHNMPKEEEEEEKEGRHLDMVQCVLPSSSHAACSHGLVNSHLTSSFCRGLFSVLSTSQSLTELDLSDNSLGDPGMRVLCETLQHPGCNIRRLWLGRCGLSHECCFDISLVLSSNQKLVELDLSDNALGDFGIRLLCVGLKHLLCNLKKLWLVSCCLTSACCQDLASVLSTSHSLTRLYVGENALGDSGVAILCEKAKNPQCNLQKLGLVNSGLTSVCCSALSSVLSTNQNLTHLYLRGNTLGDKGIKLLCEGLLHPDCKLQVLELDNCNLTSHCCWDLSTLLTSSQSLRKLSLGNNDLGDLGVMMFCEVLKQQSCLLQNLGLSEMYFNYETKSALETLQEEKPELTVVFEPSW

## O=C(NNC(=S)NC(=O)c1ccc(Br)cc1)c1ccc([N+](=O)[O-])cc1
[1]
  EC50: > 160 µM (inactive)
[2]
  IC50: 5.63 µM (active)
[3]
  EC50: > 160 µM (inconclusive)
[4]
  EC50: > 180 µM (inactive)
[5]
  EC50: 0.198 µM (active)
[6]
  EC50: 5.32 µM (active)

## COc1ccc(/C=C2\Oc3cc(OCC(=O)N4CCC(C(=O)O)CC4)ccc3C2=O)c(OC)c1
Insulin-degrading enzyme [7]
  EC50: > 54.7 µM (inactive)
HEK293 [8]
  IC50: > 89.3 µM (inactive)
Insulin-degrading enzyme [9]
  EC50: > 54.7 µM (inactive)
HEK293 [10]
  EC50: > 56 µM (inactive)

## Cc1nc(Cc2nnc(SC(C)C(=O)N3c4ccccc4NC(=O)C3(C)C)o2)cs1 (centres undefined)
Insulin-degrading enzyme [7]
  EC50: > 54.7 µM (inactive)
HEK293 [8]
  IC50: > 89.1 µM (inactive)
Insulin-degrading enzyme [9]
  EC50: > 54.7 µM (inactive)
HEK293 [10]
  EC50: > 55.9 µM (inactive)
